Test results from the NIST ThermoML archive (doi:10.1021/je030168a).
± gives the expanded uncertainty stated by the source.

Assays:
[1] = Liquid
[2] = excess molar enthalpy (molar enthalpy of mixing); xn = mol fraction of the nth substance listed; conditions: 298.15 K, 101.3 kPa, Liquid, Flow calorimetry

CCCCCCCCCCO [decan-1-ol]
[1], Closed cell (Static) method
Conditions | vapor or sublimation pressure [kPa]
308.15 K | 0.001
313.15 K | 0.004
318.15 K | 0.007 ± 0.01
323.15 K | 0.011 ± 0.01

CCCCCCCCO [octan-1-ol]
[1]
Conditions | vapor or sublimation pressure [kPa]
288.15 K | 0.001
293.15 K | 0.003
298.15 K | 0.007 ± 0.01
303.15 K | 0.011 ± 0.01
308.15 K | 0.019 ± 0.01
313.15 K | 0.031 ± 0.01
318.15 K | 0.051 ± 0.01
323.15 K | 0.08 ± 0.01

CCCCBr [1-bromobutane]
[1]
Conditions | vapor or sublimation pressure [kPa]
278.15 K | 1.86 ± 0.022
283.15 K | 2.48 ± 0.023
288.15 K | 3.265 ± 0.026
293.15 K | 4.261 ± 0.029
298.15 K | 5.506 ± 0.033
303.15 K | 7.039 ± 0.038
308.15 K | 8.899 ± 0.043
313.15 K | 11.15 ± 0.05
318.15 K | 13.87 ± 0.059
323.15 K | 17.09 ± 0.069

CCCCBr [1-bromobutane] + CCCCCCCCO
[2]
Conditions | excess molar enthalpy [kcal/mol]
x2 = 0.025 | 0.087 ± 0.00191
x2 = 0.0571 | 0.144 ± 0.00311
x2 = 0.1224 | 0.201 ± 0.0043
x2 = 0.1949 | 0.233 ± 0.00502
x2 = 0.2361 | 0.244 ± 0.00526
x2 = 0.276 | 0.25 ± 0.00526
x2 = 0.3205 | 0.253 ± 0.0055
x2 = 0.367 | 0.252 ± 0.0055
x2 = 0.4661 | 0.24 ± 0.00526
x2 = 0.5784 | 0.212 ± 0.00454
x2 = 0.7064 | 0.165 ± 0.00359
x2 = 0.8484 | 0.0956 ± 0.00215
x2 = 0.9311 | 0.0488 ± 0.0012
